What all share (assay type): cell-based, human
In experiment [1] the test system is HOP-62. The experiment is described as follows: NCI-60 cell line screen (SRB), HOP-62. Particulars: Homo sapiens. The procedure: (§1) Drug sensitivity data are provided as GI50s (concentrations required to inhibit growth by 50%). The first row of the text file identifies cell lines, separated by tabs. Subsequent rows contain compound number, compound name, and GI50 for each cell line, each separated by a tab. […] For a typical screening experiment, cells are inoculated into 96 well microtiter plates in 100 μL at plating densities ranging from 5,000 to 40,000 cells/well depending on the doubling time of individual cell lines. After cell inoculation, the microtiter plates are incubated at 37° C., 5% CO2, 95% air and 100% relative humidity for 24 h prior to addition of experimental drugs. After 24 h, two plates of each cell line are fixed in situ with TCA, to represent a measurement of the cell population for each cell line at the time of drug addition (Tz). Experimental drugs are solubilized in dimethyl sulfoxide at 400-fold the desired final maximum test concentration and stored frozen prior to use. At the time of drug addition, an aliquot of frozen concentrate is thawed and diluted to twice the desired final maximum test concentration with complete medium containing 50 μg/ml gentamicin. Additional four, 10-fold or one-half log serial dilutions are made to provide a total of five drug concentrations plus control. Aliquots of 100 μl of these different drug dilutions are added to the appropriate microtiter wells already containing 100 μl of medium, resulting in the required final drug concentrations. Following drug addition, the plates are incubated for an additional 48 h at 37° C., 5% CO2, 95% air, and 100% relative humidity. For adherent cells, the assay is terminated by the addition of cold TCA. Cells are fixed in situ by the gentle addition of 50 μl of cold 50% (w/v) TCA (final concentration, 10% TCA) and incubated for 60 minutes at 4° C. The supernatant is discarded, and the plates are washed five times with tap water and air dried. Sulforhodamine B (SRB) solution (100 μl) at 0.4% (w/v) in 1% acetic acid is added to each well, and plates are incubated for 10 minutes at room temperature. After staining, unbound dye is removed by washing five times with 1% acetic acid and the plates are air dried. Bound stain is subsequently solubilized with 10 mM trizma base, and the absorbance is read on an automated plate reader at a wavelength of 515 nm. For suspension cells, the methodology is the same except that the assay is terminated by fixing settled cells at the bottom of the wells by gently adding 50 μl of 80% TCA (final concentration, 16% TCA). Using the seven absorbance measurements [time zero, (Tz), control growth, (C), and test growth in the presence of drug at the five concentration levels (Ti)], the percentage growth is calculated at each of the drug concentrations levels. […]

In experiment [2] the test system is UO-31. The experiment is described as follows: NCI-60 cell line screen (SRB), UO-31. Particulars: Homo sapiens. Here is the method: as §1
Experiment [3] has as its system SF-268. Kind of experiment: NCI-60 cell line screen (SRB), SF-268. As to conditions: Homo sapiens. Here is the method: as §1
Experiment [4] relates to KM12. The experiment is described as follows: NCI-60 cell line screen (SRB), KM12. Particulars: Homo sapiens. Here is the method: as §1
In experiment [5] the test system is NCI-H23. The experiment is described as follows: NCI-60 cell line screen (SRB), NCI-H23. As to conditions: Homo sapiens. The procedure: as §1
Experiment [6] relates to HOP-92. The experiment is described as follows: NCI-60 cell line screen (SRB), HOP-92. Particulars: Homo sapiens. The procedure:
as §1

The subject of experiment [7] is ACHN. The experiment is described as follows: NCI-60 cell line screen (SRB), ACHN. Particulars: Homo sapiens. Here is the method:
as §1

In experiment [8] the test system is U-251. The experiment is described as follows: NCI-60 cell line screen (SRB), U-251. As to conditions: Homo sapiens. The procedure: as §1
Experiment [9] relates to HL-60(TB). The experiment is described as follows: NCI-60 cell line screen (SRB), HL-60(TB). As to conditions: Homo sapiens. Here is the method:
as §1

For experiment [10], the system named is HT29. Kind of experiment: NCI-60 cell line screen (SRB), HT29. Particulars: Homo sapiens. Here is the method:
as §1

Experiment [11] relates to UACC-62. Kind of experiment: NCI-60 cell line screen (SRB), UACC-62. Particulars: Homo sapiens. The procedure: as §1
Experiment [12] deals with Prostate Cancer cell lines. The experiment is described as follows: NCI-60 cell line screen, Prostate Cancer panel average. Particulars: Homo sapiens, read-out: GI50 Average. Here is the method:
as §1

Experiment [13] has as its system NCI-H460. The experiment is described as follows: NCI-60 cell line screen (SRB), NCI-H460. As to conditions: Homo sapiens. The procedure: as §1
The test system of experiment [14] is COLO 205. The experiment is described as follows: NCI-60 cell line screen (SRB), COLO 205. Particulars: Homo sapiens. The procedure:
as §1

For experiment [15], the system named is CNS Cancer cell lines. The experiment is described as follows: NCI-60 cell line screen, CNS Cancer panel average. As to conditions: Homo sapiens, read-out: GI50 Average. The procedure:
as §1

The test system of experiment [16] is Breast Cancer cell lines. The experiment is described as follows: NCI-60 cell line screen, Breast Cancer panel average. As to conditions: Homo sapiens, read-out: GI50 Average. The procedure: as §1
For experiment [17], the system named is Colon Cancer cell lines. Kind of experiment: NCI-60 cell line screen, Colon Cancer panel average. Particulars: Homo sapiens, read-out: GI50 Average. Here is the method:
as §1

Experiment [18] deals with CAKI-1. Kind of experiment: NCI-60 cell line screen (SRB), CAKI-1. As to conditions: Homo sapiens. Here is the method:
as §1

Experiment [19] relates to BT-549. Kind of experiment: NCI-60 cell line screen (SRB), BT-549. Particulars: Homo sapiens. Here is the method:
as §1

For experiment [20], the system named is NCI/ADR-RES. The experiment is described as follows: NCI-60 cell line screen (SRB), NCI/ADR-RES. Particulars: Homo sapiens. Here is the method:
as §1

Experiment [21] relates to LOX IMVI. The experiment is described as follows: NCI-60 cell line screen (SRB), LOX IMVI. As to conditions: Homo sapiens. The procedure: as §1
Experiment [22] has as its system HCT-15. Kind of experiment: NCI-60 cell line screen (SRB), HCT-15. Particulars: Homo sapiens. The procedure: as §1
For experiment [23], the system named is UACC-257. Kind of experiment: NCI-60 cell line screen (SRB), UACC-257. As to conditions: Homo sapiens. The procedure: as §1
Experiment [24] has as its system SNB-19. The experiment is described as follows: NCI-60 cell line screen (SRB), SNB-19. As to conditions: Homo sapiens. Here is the method: as §1

Like-named read-outs stand apart in the source and are kept apart here.

For the molecule `CC1(C)CC(NC(=O)[C@H](Cc2ccc(OCc3c(Cl)cccc3Cl)cc2)NC(=O)c2ccc(OCCC[Si](C)(C)C)cc2)CC(C)(C)N1` [GH1501, N^α-{4-[3-(trimethylsilyl)propoxy]-benzoyl}-N-(2,2,6,6-tetramethylpiperidin-4-yl)-[O-(2,6-dichlorobenzyl)-L-tyrosinamide]], the GI50 – broadly, the concentration at which growth is held to half of that of the control – in [1] (HOP-62, 48 h) was determined as 1860 nM; in [2] (UO-31, 48 h), 1520 nM; in experiment [3] (SF-268, 48 h) it was 903 nM; in experiment [4] (KM12, 48 h), 363 nM; in experiment [5] (NCI-H23, 48 h), 1650 nM; in experiment [6] (HOP-92, 48 h), 1170 nM. In addition, the GI50 in experiment [7] (48 h) was determined as 1320 nM; in experiment [8] (U-251, 48 h), 230 nM; in experiment [9] (HL-60, 48 h), 813 nM; in experiment [10] (HT-29, 48 h), 263 nM; in experiment [11] (UACC-62, 48 h) it was 1490 nM; in [12], 834 nM. For the same molecule, the GI50 in [13] (NCI-H460, 48 h) was found to be 253 nM; in [14] (COLO 205, 48 h) it was 216 nM; in [15] it was 1190 nM; in experiment [16] it was 1460 nM; in experiment [17], 395 nM; in experiment [18] (CAKI-1, 48 h) it was 1360 nM. Also, the GI50 amounted to 2010 nM in experiment [19] (BT-549, 48 h); 1480 nM in [20] (48 h); 197 nM in experiment [21] (48 h); 357 nM in experiment [22] (HCT-15, 48 h); 1880 nM in [23] (UACC-257, 48 h); 1720 nM in [24] (SNB-19, 48 h).
Consider `CCCC[Si](C)(C)COc1ccc(C(=O)N[C@@H](Cc2ccc(OCc3c(Cl)cccc3Cl)cc2)C(=O)NC2CC(C)(C)NC(C)(C)C2)cc1` [GH1503, N^α-{4-[(butyldimethylsilyl)methoxy]-benzoyl}-N-(2,2,6,6-tetramethylpiperidin-4-yl)-[O-(2,6-dichlorobenzyl)-L-tyrosinamide]], for which the concentration for 50% growth inhibition (GI50) in [1] (Non-Small Cell Lung Cancer, HOP-62, 48 h drug incubation, read-out: GI50) is 1510 nM; in experiment [2] (Renal Cancer, UO-31, 48 h drug incubation, read-out: GI50) it was 1500 nM; in experiment [3] (CNS Cancer, SF-268, 48 h drug incubation, read-out: GI50) it was 611 nM; in experiment [4] (Colon Cancer, KM12, 48 h drug incubation, read-out: GI50), 382 nM; in experiment [5] (Non-Small Cell Lung Cancer, NCI-H23, 48 h drug incubation, read-out: GI50), 1560 nM; in experiment [6] (Non-Small Cell Lung Cancer, HOP-92, 48 h drug incubation, read-out: GI50), 1110 nM. Also, the GI50 in [7] (Renal Cancer, 48 h drug incubation, read-out: GI50) came to 478 nM; in experiment [8] (CNS Cancer, U-251, 48 h drug incubation, read-out: GI50), 234 nM; in experiment [9] (Leukemia, HL-60(TB), 48 h drug incubation, read-out: GI50), 790 nM; in experiment [10] (HT-29, Colon Cancer, HT29, 48 h drug incubation, read-out: GI50), 342 nM; in experiment [11] (Melanoma, UACC-62, 48 h drug incubation, read-out: GI50) it was 1500 nM; in experiment [12] (average over Prostate Cancer panel) it was 382 nM. Moreover, the GI50 in experiment [13] (Non-Small Cell Lung Cancer, NCI-H460, 48 h drug incubation, read-out: GI50) came out at 259 nM; in experiment [14] (Colon Cancer, COLO 205, 48 h drug incubation, read-out: GI50), 342 nM; in [15] (average over CNS Cancer panel), 1100 nM; in experiment [16] (average over Breast Cancer panel), 1390 nM; in experiment [17] (average over Colon Cancer panel), 442 nM; in experiment [18] (Renal Cancer, CAKI-1, 48 h drug incubation, read-out: GI50), 1080 nM. The 50% growth inhibitory concentration (GI50) in experiment [19] (Breast Cancer, BT-549, 48 h drug incubation, read-out: GI50) stood at 2110 nM; in experiment [20] (Ovarian Cancer, 48 h drug incubation, read-out: GI50), 1250 nM; in experiment [21] (Melanoma, 48 h drug incubation, read-out: GI50), 191 nM; in experiment [22] (Colon Cancer, HCT-15, 48 h drug incubation, read-out: GI50), 323 nM; in experiment [23] (Melanoma, UACC-257, 48 h drug incubation, read-out: GI50) it was 1870 nM; in experiment [24] (CNS Cancer, SNB-19, 48 h drug incubation, read-out: GI50), 1600 nM.
As to `CCCC[Si](C)(C)COc1ccc(C(=O)N[C@@H](Cc2ccc(-c3ccccc3)cc2)C(=O)NC2CC(C)(C)NC(C)(C)C2)cc1` [GH1504, N^α-{4-[(butyldimethylsilyl)methoxy]-benzoyl}-N-(2,2,6,6-tetramethylpiperidin-4-yl)-(4-phenyl-L-phenylalaninamide)], the concentration for 50% growth inhibition (GI50) in experiment [1] (HOP-62, 48 h) was found to be 1360 nM; in experiment [2] (UO-31, 48 h), 1550 nM; in experiment [3] (SF-268, 48 h) it was 679 nM; in experiment [4] (KM12, 48 h), 376 nM; in [5] (NCI-H23, 48 h), 1760 nM; in [6] (HOP-92, 48 h), 1370 nM. Moreover, the GI50 was found to be 402 nM in experiment [7] (48 h); 238 nM in [8] (U-251, 48 h); 1220 nM in experiment [9] (HL-60, 48 h); 315 nM in experiment [10] (HT-29, 48 h); 1150 nM in [11] (UACC-62, 48 h); 834 nM in experiment [12]. Besides, the GI50 was 348 nM in experiment [13] (NCI-H460, 48 h); 215 nM in [14] (COLO 205, 48 h); 1170 nM in [15]; 1170 nM in [16]; 408 nM in experiment [17]; 1580 nM in experiment [18] (CAKI-1, 48 h). Further, the GI50 in experiment [19] (BT-549, 48 h) came to 1960 nM; in experiment [20] (48 h) it was 1540 nM; in [21] (48 h), 207 nM; in [22] (HCT-15, 48 h), 309 nM; in [23] (UACC-257, 48 h) it was 1780 nM; in experiment [24] (SNB-19, 48 h), 1550 nM.

Source of the values: patent US9828393B2, “Silylalkyloxyaryl compounds and methods for treating cancer” (THE REGENTS OF THE UNIVERSITY OF COLORADO, a body corporate, priority 2013, dated 2017).
